Values quoted from earlier work as cited in PubChem BioAssay AID1259409 (Chemical Carcinogenesis Research Information System (CCRIS), 2018).

Tested on: rodent chemically induced tumor inhibition, incidence and multiplicity
Experiment: CCRIS tumor inhibitor studies
Conditions: Promoter: NONE USED

Q: For `CC(C(=O)O)c1ccc(-c2ccccc2)c(F)c1` (configuration not stated), which “tumour outcome (control, treated, inhibition, significance)” value (Carcinogen: N-METHYL-N-NITROSOUREA, 684-93-5, Dose [Inhibitor]: 31.25 MG/KG DIET DAILY STARTING 1 WK AFTER CARCINOGEN ADMINISTRATION AND CONTINUING THROUGH THE END OF THE STUDY (STUDY, Route [Inhibitor]: ORAL, Species: RAT, Strain/Sex: SPRAGUE-DAWLEY/FEMALE, Target Tissue: Type of Lesion: MAMMARY GLAND: CARCINOMA, Dose [Carcinogen]: 25 MG/KG BW ONCE) is on record?
A: The value was 91%, 60%, 34%, p<0.05.

Q: And the “tumour outcome (control, treated, inhibition, significance)” value (Carcinogen: N-METHYL-N-NITROSOUREA, 684-93-5, Dose [Inhibitor]: 31.25 MG/KG DIET DAILY STARTING 1 WK AFTER CARCINOGEN ADMINISTRATION AND CONTINUING THROUGH THE END OF THE STUDY (STUDY, Route [Inhibitor]: ORAL, Species: RAT, Strain/Sex: SPRAGUE-DAWLEY/FEMALE, Target Tissue: Type of Lesion: MAMMARY GLAND: CARCINOMA, Dose [Carcinogen]: 50 MG/KG BW ONCE)?
A: Its value is 100%, 100%, 0%, not significant.

Q: And the “tumour outcome (control, treated, inhibition, significance)” value (Carcinogen: N-METHYL-N-NITROSOUREA, 684-93-5, Dose [Inhibitor]: 31.25 MG/KG IN DIET STARTING 1 WK AFTER CARCINOGEN DOSE AND CONTINUING THROUGH THE END OF THE STUDY (STUDY DURATION: 180, Route [Inhibitor]: ORAL, Species: RAT, Strain/Sex: SPRAGUE-DAWLEY/FEMALE, Target Tissue: Type of Lesion: MAMMARY GLAND: CARCINOMA, Dose [Carcinogen]: 25 MG/KG BW ONCE)?
A: Its value is 91%, 60%, 34%, p<0.05.

Q: And the “tumour outcome (control, treated, inhibition, significance)” value (Carcinogen: N-METHYL-N-NITROSOUREA, 684-93-5, Dose [Inhibitor]: 31.25 MG/KG IN DIET STARTING 1 WK AFTER CARCINOGEN DOSE AND CONTINUING THROUGH THE END OF THE STUDY (STUDY DURATION: 180, Route [Inhibitor]: ORAL, Species: RAT, Strain/Sex: SPRAGUE-DAWLEY/FEMALE, Target Tissue: Type of Lesion: MAMMARY GLAND: CARCINOMA, Dose [Carcinogen]: 50 MG/KG BW ONCE)?
A: The value was 100%, 100%, 0%, not significant.

Q: And the “tumour outcome (control, treated, inhibition, significance)” value (Carcinogen: N-METHYL-N-NITROSOUREA, 684-93-5, Dose [Inhibitor]: 62.5 MG/KG DIET DAILY STARTING 1 WK AFTER CARCINOGEN ADMINISTRATION AND CONTINUING THROUGH THE END OF THE STUDY (STUDY D, Route [Inhibitor]: ORAL, Species: RAT, Strain/Sex: SPRAGUE-DAWLEY/FEMALE, Target Tissue: Type of Lesion: MAMMARY GLAND: CARCINOMA, Dose [Carcinogen]: 25 MG/KG BW ONCE)?
A: The value was 91%, 68%, 25%, p<0.1.

Q: What about the “tumour outcome (control, treated, inhibition, significance)” value (Carcinogen: N-METHYL-N-NITROSOUREA, 684-93-5, Dose [Inhibitor]: 62.5 MG/KG DIET DAILY STARTING 1 WK AFTER CARCINOGEN ADMINISTRATION AND CONTINUING THROUGH THE END OF THE STUDY (STUDY D, Route [Inhibitor]: ORAL, Species: RAT, Strain/Sex: SPRAGUE-DAWLEY/FEMALE, Target Tissue: Type of Lesion: MAMMARY GLAND: CARCINOMA, Dose [Carcinogen]: 50 MG/KG BW ONCE) of the same compound?
A: The value was 100%, 100%), 0%, not significant.

Q: And the “tumour outcome (control, treated, inhibition, significance)” value (Carcinogen: N-METHYL-N-NITROSOUREA, 684-93-5, Dose [Inhibitor]: 62.5 MG/KG IN DIET STARTING 1 WK AFTER CARCINOGEN DOSE AND CONTINUING THROUGH THE END OF THE STUDY (STUDY DURATION: 180, Route [Inhibitor]: ORAL, Species: RAT, Strain/Sex: SPRAGUE-DAWLEY/FEMALE, Target Tissue: Type of Lesion: MAMMARY GLAND: CARCINOMA, Dose [Carcinogen]: 25 MG/KG BW ONCE)?
A: The value was 91%, 68%, 25%, p<0.1.

Q: And the “tumour outcome (control, treated, inhibition, significance)” value (Carcinogen: N-METHYL-N-NITROSOUREA, 684-93-5, Dose [Inhibitor]: 62.5 MG/KG IN DIET STARTING 1 WK AFTER CARCINOGEN DOSE AND CONTINUING THROUGH THE END OF THE STUDY (STUDY DURATION: 180, Route [Inhibitor]: ORAL, Species: RAT, Strain/Sex: SPRAGUE-DAWLEY/FEMALE, Target Tissue: Type of Lesion: MAMMARY GLAND: CARCINOMA, Dose [Carcinogen]: 50 MG/KG BW ONCE)?
A: The value was 100%, 100%, 0%, not significant.

Q: Which results are given for `C=CC/C(=N/OS(=O)(=O)O)S[C@@H]1O[C@H](CO)[C@@H](O)[C@H](O)[C@H]1O`?
A: tumour outcome (control, treated, inhibition, significance) (Carcinogen: 4-NITROQUINOLINE-1-OXIDE, 56-57-5, Dose [Inhibitor]: 0, 1200 PPM IN DIET BEGINNING 1 WK POST CARCINOGEN TREATMENT AND CONTINUING FOR 23 WK (STUDY DURATION: 37 WK), Route [Inhibitor]: ORAL, Species: RAT, Strain/Sex: ACI/N/MALE, Target Tissue: Type of Lesion: TONGUE: CARCINOMA, Dose [Carcinogen]: 10 PPM IN DRINKING WATER FOR 12 WK): 12/17 (71%), 0/15 (0%), 100%, p 0.0003; tumour outcome (control, treated, inhibition, significance) (Carcinogen: 4-NITROQUINOLINE-1-OXIDE, 56-57-5, Dose [Inhibitor]: 0, 1200 PPM IN DIET BEGINNING 1 WK POST CARCINOGEN TREATMENT AND CONTINUING FOR 23 WK (STUDY DURATION: 37 WK), Route [Inhibitor]: ORAL, Species: RAT, Strain/Sex: ACI/N/MALE, Target Tissue: Type of Lesion: TONGUE: PAPILLOMA, Dose [Carcinogen]: 10 PPM IN DRINKING WATER FOR 12 WK): 5/17 (29%), 2/15 (13%), 55%, not calculated; tumour outcome (control, treated, inhibition, significance) (Carcinogen: 4-NITROQUINOLINE-1-OXIDE, 56-57-5, Dose [Inhibitor]: 0, 1200 PPM IN DIET BEGINNING 1 WK PRIOR TO CARCINOGEN TREATMENT AND CONTINUING FOR 1 WK POST CARCINOGEN TREATMENT (STUD, Route [Inhibitor]: ORAL, Species: RAT, Strain/Sex: ACI/N/MALE, Target Tissue: Type of Lesion: TONGUE: CARCINOMA, Dose [Carcinogen]: 10 PPM IN DRINKING WATER FOR 12 WK): 12/17 (71%), 0/15 (0%), 100%, p 0.00003; tumour outcome (control, treated, inhibition, significance) (Carcinogen: 4-NITROQUINOLINE-1-OXIDE, 56-57-5, Dose [Inhibitor]: 0, 1200 PPM IN DIET BEGINNING 1 WK PRIOR TO CARCINOGEN TREATMENT AND CONTINUING FOR 1 WK POST CARCINOGEN TREATMENT (STUD, Route [Inhibitor]: ORAL, Species: RAT, Strain/Sex: ACI/N/MALE, Target Tissue: Type of Lesion: TONGUE: PAPILLOMA, Dose [Carcinogen]: 10 PPM IN DRINKING WATER FOR 12 WK): 5/17 (29%), 1/15 (7%), 76%, not calculated; tumour outcome (control, treated, inhibition, significance) (Carcinogen: DIETHYLNITROSAMINE, 55-18-5, Dose [Inhibitor]: 0, 1200 PPM IN DIET BEGINNING 1 WK PRIOR TO FIRST CARCINOGEN DOSE AND CONTINUING TO 1 WK POST LAST CARCINOGEN DOSE (STUD, Route [Inhibitor]: ORAL, Species: RAT, Strain/Sex: ACI/N/MALE, Target Tissue: Type of Lesion: LIVER: ADENOMA, Dose [Carcinogen]: 40 PPM IN DRINKING WATER FOR 5 WK): 10/10 (100%), 2/12 (17%), 83%, p<0.0002; tumour outcome (control, treated, inhibition, significance) (Carcinogen: DIETHYLNITROSAMINE, 55-18-5, Dose [Inhibitor]: 0, 1200 PPM IN DIET BEGINNING 1 WK PRIOR TO FIRST CARCINOGEN DOSE AND CONTINUING TO 1 WK POST LAST CARCINOGEN DOSE (STUD, Route [Inhibitor]: ORAL, Species: RAT, Strain/Sex: ACI/N/MALE, Target Tissue: Type of Lesion: LIVER: CARCINOMA, Dose [Carcinogen]: 40 PPM IN DRINKING WATER FOR 5 WK): 10/10 (100%), 4/12 (33%), 67%, p<0.002

Q: With `Nc1nc(-c2ccccc2)c(Br)c(=O)[nH]1` as the compound, how does the “tumour outcome (control, treated, inhibition, significance)” value (Carcinogen: N-[4-(5-NITRO-2-FURYL)-2-THIAZOLYL]FORMAMIDE, 24554-26-5, Dose [Inhibitor]: 200 MG/KG IN CARBOXYMETHYL-CELLULOSE, POLYSORBATE 80, NACL AND BENZYL ALCOHOL, 2/WK BEGINNING ON DAY 30 OF CARCINOGEN TR, Route [Inhibitor]: INTRAGASTRIC, Species: MOUSE, Strain/Sex: C3H/FEMALE, Target Tissue: Type of Lesion: BLADDER: TRANSITIONAL CELL CARCINOMA, Dose [Carcinogen]: 0.13% IN DIET FOR 192 D) read?
A: The value was 24/39 (62%), 6/43 (14%), 77%, p=0.0001.

Q: And the “tumour outcome (control, treated, inhibition, significance)” value (Carcinogen: N-[4-(5-NITRO-2-FURYL)-2-THIAZOLYL]FORMAMIDE, 24554-26-5, Dose [Inhibitor]: 200 MG/KG IN CARBOXYMETHYL-CELLULOSE, POLYSORBATE 80, NACL AND BENZYL ALCOHOL, 2/WK BEGINNING ON DAY 30 OF CARCINOGEN TR, Route [Inhibitor]: INTRAPERITONEAL, Species: MOUSE, Strain/Sex: C3H/FEMALE, Target Tissue: Type of Lesion: BLADDER: TRANSITIONAL CELL CARCINOMA, Dose [Carcinogen]: 0.13% IN DIET FOR 192 D)?
A: The value was 18/22 (82%), 5/9 (56%), 32%, p<0.2.

Q: What about the “tumour outcome (control, treated, inhibition, significance)” value (Carcinogen: N-[4-(5-NITRO-2-FURYL)-2-THIAZOLYL]FORMAMIDE, 24554-26-5, Dose [Inhibitor]: 200 MG/KG IN CARBOXYMETHYL-CELLULOSE, POLYSORBATE 80, NACL AND BENZYL ALCOHOL, 2/WK BEGINNING ON DAY 150 OF CARCINOGEN T, Route [Inhibitor]: INTRAPERITONEAL, Species: MOUSE, Strain/Sex: C3H/FEMALE, Target Tissue: Type of Lesion: BLADDER: TRANSITIONAL CELL CARCINOMA, Dose [Carcinogen]: 0.13% IN DIET FOR 192 D) of the same compound?
A: Its value is 18/22 (82%), 17/19 (89%), -8%, p=0.489.
